From patent US10023593B2, “ALK kinase inhibitor, and preparation method and uses thereof” (BEIJING PEARL BIOTECHNOLOGY LIMITED LIABILITY COMPANY, priority 2014, dated 2018) come the findings set out here.

In one experiment the target is T1, L1196M mutant ALK kinase (Homo sapiens, UniProt Q9UM73, L1196M).
T1 construct: purchased Sino-US Crown Bioscience, Inc. batch number ALKm_20110923
Put plainly: HTRF KinEASE-TK assay, inhibitory activity on L1196M mutant ALK kinase. The experiment is classed as biochemical. The settings on record: L1196M mutant ALK 1 ng/μl, substrate 1 μM, ATP 5 μM, 30° C. 35 minutes, read-out: Inhibition on ALK kinases (L1196M mutant), IC50. The essentials: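 HTRF TK assay: mutant kinase 1 ng/μl, substrate 1 μM, ATP 5 μM, 5 mM MgCl2, 1 mM DTT, 1% DMSO, 35 min at 30 °C. 665/615 ratio read; inhibition normalised to no-compound and 10.4 μM LDK-378 controls; IC50 from curve fit.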

A further experiment relates to NCI-H2228 cell line. Put plainly: CellTiter-Glo cell proliferation inhibition on NCI-H2228 cell line. The format is cell-based. The settings on record: Homo sapiens, NCI-H2228, 96 h, NCI-H2228 cells, 5000 cells/well, 4 days drug treatment. Put shortly:
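NCI-H2228 cells, 5000/well in RPMI-1640 + 10% FBS, treated with compounds 2 h after seeding (0.5% DMSO final) for 4 days at 37° C. Viability by CellTiter-Glo luminescence; inhibition relative to DMSO control, IC50 from curve fit.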

T1 sequence (Q9UM73 19-1620 L1196M): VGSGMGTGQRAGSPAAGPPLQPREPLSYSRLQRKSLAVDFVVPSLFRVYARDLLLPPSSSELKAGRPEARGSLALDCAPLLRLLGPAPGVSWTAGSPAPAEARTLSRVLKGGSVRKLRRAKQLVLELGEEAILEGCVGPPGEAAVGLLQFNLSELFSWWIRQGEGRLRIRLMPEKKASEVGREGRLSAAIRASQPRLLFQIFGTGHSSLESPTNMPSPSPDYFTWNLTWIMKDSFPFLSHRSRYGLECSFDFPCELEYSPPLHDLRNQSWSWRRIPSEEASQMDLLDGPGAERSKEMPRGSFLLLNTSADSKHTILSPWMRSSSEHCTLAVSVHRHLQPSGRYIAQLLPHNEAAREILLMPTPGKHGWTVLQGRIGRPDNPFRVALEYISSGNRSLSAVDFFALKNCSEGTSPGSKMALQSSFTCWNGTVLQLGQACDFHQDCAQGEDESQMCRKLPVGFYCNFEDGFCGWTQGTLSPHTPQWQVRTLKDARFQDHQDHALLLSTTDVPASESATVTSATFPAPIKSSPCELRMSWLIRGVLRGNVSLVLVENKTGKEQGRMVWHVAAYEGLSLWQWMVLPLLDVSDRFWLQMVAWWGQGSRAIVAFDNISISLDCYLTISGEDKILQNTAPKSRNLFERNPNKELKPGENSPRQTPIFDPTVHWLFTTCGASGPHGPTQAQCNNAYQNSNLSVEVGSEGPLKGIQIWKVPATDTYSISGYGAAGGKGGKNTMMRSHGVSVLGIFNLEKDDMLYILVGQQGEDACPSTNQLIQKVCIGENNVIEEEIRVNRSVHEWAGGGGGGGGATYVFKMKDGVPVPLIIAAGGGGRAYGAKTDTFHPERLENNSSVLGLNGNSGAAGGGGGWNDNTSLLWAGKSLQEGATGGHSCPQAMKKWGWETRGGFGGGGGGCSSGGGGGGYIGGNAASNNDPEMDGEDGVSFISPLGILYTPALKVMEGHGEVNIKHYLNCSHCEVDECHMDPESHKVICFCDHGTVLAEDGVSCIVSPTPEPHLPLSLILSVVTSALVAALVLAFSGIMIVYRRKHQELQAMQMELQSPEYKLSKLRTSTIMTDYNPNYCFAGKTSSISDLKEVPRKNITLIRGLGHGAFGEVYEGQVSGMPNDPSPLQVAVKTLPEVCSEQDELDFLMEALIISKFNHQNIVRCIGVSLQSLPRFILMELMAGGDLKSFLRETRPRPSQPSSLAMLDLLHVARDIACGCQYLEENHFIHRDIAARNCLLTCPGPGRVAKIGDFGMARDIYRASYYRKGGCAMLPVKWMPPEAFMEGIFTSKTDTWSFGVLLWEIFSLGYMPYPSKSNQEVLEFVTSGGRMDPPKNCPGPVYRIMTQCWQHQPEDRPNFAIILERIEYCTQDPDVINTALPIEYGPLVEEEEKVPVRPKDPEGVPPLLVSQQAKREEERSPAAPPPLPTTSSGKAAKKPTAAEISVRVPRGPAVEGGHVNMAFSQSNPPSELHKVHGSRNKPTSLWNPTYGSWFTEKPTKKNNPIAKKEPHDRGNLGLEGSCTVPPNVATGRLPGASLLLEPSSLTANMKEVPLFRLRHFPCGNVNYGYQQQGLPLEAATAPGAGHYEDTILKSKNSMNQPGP

Regarding `CC(C)S(=O)(=O)c1nn(C2CC2)cc1Nc1nc(Nc2cc(Cl)c(C3CCN(C)CC3)cc2OC2CC2)ncc1Cl` [Final product 48], the IC50 on L1196M mutant ALK kinase is 5 nM; in the experiment on NCI-H2228 cell line, 115 nM.

For the compound `CC(C)S(=O)(=O)c1nn(C)cc1Nc1nc(Nc2cc(C#N)c(C3CCN(C)CC3)cc2OC2CC2)ncc1Cl` [Final product 49], the values for the IC50 on L1196M mutant ALK kinase and in the experiment on NCI-H2228 cell line were 13 nM and 165 nM, respectively.

In the case of `Cc1cc(Nc2ncc(Cl)c(Nc3cn(C)nc3S(=O)(=O)C(C)C)n2)c(OC2CC2)cc1C1=CCN(C)CC1` [Final product 50], the IC50 on L1196M mutant ALK kinase turned out to be 7 nM; in the experiment with NCI-H2228 cell line, 86 nM.

As to `Cc1cc(Nc2ncc(Cl)c(Nc3cn(C)nc3S(=O)(=O)C(C)C)n2)c(OC2CC2)cc1C1CCOCC1` [Final product 107], the results for the IC50 on L1196M mutant ALK kinase and in the experiment on NCI-H2228 cell line were 19 nM and 174 nM, respectively.

On to `Cc1cc(Nc2ncc(Cl)c(Nc3cn(C)nc3S(=O)(=O)C(C)C)n2)c(OC2CC2)cc1OC1CCN(C)CC1` [Final product 111], for which the IC50 was determined as 7 nM at L1196M mutant ALK kinase and 188 nM with NCI-H2228 cell line.

Turning to `CCN1CCC(c2cc(OC(C)C)c(Nc3ncc(Cl)c(Nc4cn(C)nc4S(=O)(=O)C(C)C)n3)cc2C)CC1` [Final product 118], the IC50 at L1196M mutant ALK kinase amounted to 10 nM; in the experiment with NCI-H2228 cell line, 101 nM.

In the case of `Cc1cc(Nc2ncc(Cl)c(Nc3cn(C)nc3S(=O)(=O)C(C)C)n2)c(OC(C)C)cc1C1CCN(C(C)C)CC1` [Final product 126], the IC50 was found to be 12 nM on L1196M mutant ALK kinase and 142 nM in the experiment on NCI-H2228 cell line.

Take `Cc1cc(Nc2ncc(Cl)c(Nc3cn(C)nc3S(=O)(=O)CC(C)C)n2)c(OC2CC2)cc1C1CCN(C(C)C)CC1` [Final product 127]: the IC50 on L1196M mutant ALK kinase came to 12 nM; in the experiment on NCI-H2228 cell line it was 142 nM.

Regarding `CCOc1cc(C2CCN(CCO)CC2)c(C)cc1Nc1ncc(Cl)c(Nc2cn(C)nc2S(=O)(=O)C(C)C)n1` [Final product 135], the figures for the IC50 at L1196M mutant ALK kinase and with NCI-H2228 cell line were 7 nM and 33 nM, respectively.

Consider `Cc1cc(Nc2ncc(Cl)c(Nc3cn(C)nc3S(=O)(=O)CC(C)C)n2)c(OC2CC2)cc1C1CCN(CCO)CC1` [Final product 137], for which the IC50 on L1196M mutant ALK kinase is 11 nM; in the experiment on NCI-H2228 cell line it was 103 nM.

Regarding `Cc1cc(Nc2ncc(Cl)c(Nc3cn(C)nc3S(=O)(=O)C(C)C)n2)c(OC2CCC2)cc1C1CCN(CCO)CC1` [Final product 138], the IC50 at L1196M mutant ALK kinase worked out at 8 nM; in the experiment on NCI-H2228 cell line, 60 nM.

`Cc1cc(Nc2ncc(Cl)c(Nc3cn(C)nc3S(=O)(=O)C(C)C)n2)c(OC(C)C)cc1C1CCN(C(C)(C)CO)CC1` [Final product 152]: the results for the IC50 on L1196M mutant ALK kinase and with NCI-H2228 cell line were 9 nM and 86 nM, respectively.

In the case of `Cc1cc(Nc2ncc(Cl)c(Nc3cn(C)nc3S(=O)(=O)C(C)C)n2)c(OC2CC2)cc1C1CCN(C2CC2)CC1` [Final product 157], the IC50 turned out to be 11 nM at L1196M mutant ALK kinase and 142 nM in the experiment with NCI-H2228 cell line.

Consider `Cc1cc(Nc2ncc(Cl)c(Nc3cn(C)nc3S(=O)(=O)C(C)C)n2)c(OC2CC2)cc1C1CCN(C=O)CC1` [Final product 159, 4-(4-(5-chloro-4-(3-(isopropylsulfonyl)-1-methyl-1H-pyrazol-4-amino)pyrimidin-2-amino)-5-cyclopropoxy-2-methylphenyl)piperidin-1-formaldehyde], for which the IC50 worked out at 9 nM at L1196M mutant ALK kinase and 43 nM in the experiment on NCI-H2228 cell line.

Take `Cc1cc(Nc2ncc(Cl)c(Nc3cn(C)nc3S(=O)(=O)C(C)C)n2)c(OC2CC2)cc1C1CCN(C(=O)C2CC2)CC1` [Final product 162, 1-cyclopropylformyl-4-(4-(5-chloro-4-(3-(isopropylsulfonyl)-1-methyl-1H-pyrazol-4-amino)pyrimidin-2-amine)-5-cyclopropoxy-2-methylphenyl)piperidine]: the IC50 turned out to be 21 nM at L1196M mutant ALK kinase and 34 nM in the experiment with NCI-H2228 cell line.

Consider `Cc1cc(Nc2ncc(Cl)c(Nc3cn(C)nc3S(=O)(=O)C(C)C)n2)c(OC2CC2)cc1C1CCN(C(=O)C(C)(C)C)CC1` [Final product 164, 1-pivaloyl-4-(4-(5-chloro-4-(3-(isopropylsulfonyl)-1-methyl-1H-pyrazol-4-amino)pyrimidin-2-amine)-5-cyclopropoxy-2-methylphenyl)piperidine], for which the IC50 worked out at 56 nM on L1196M mutant ALK kinase and 87 nM in the experiment with NCI-H2228 cell line.

As to `Cc1cc(Nc2ncc(Cl)c(Nc3cn(C)nc3S(=O)(=O)C(C)C)n2)c(OC2CC2)cc1C1CCN(C(=O)CN(C)C)CC1` [Final product 165, 1-(2-dimethylamino)acetyl-4-(4-(5-chloro-4-(3-(isopropylsulfonyl)-1-methyl-1H-pyrazol-4-amino)pyrimidin-2-amino)-5-cyclopropoxy-2-methylphenyl)piperidine], the results for the IC50 at L1196M mutant ALK kinase and in the experiment on NCI-H2228 cell line were 3 nM and 35 nM, respectively.

For the compound `Cc1cc(Nc2ncc(Cl)c(Nc3cn(C)nc3S(=O)(=O)C(C)C)n2)c(OC(C)C)cc1C1CN(S(C)(=O)=O)C1` [Final product 168], the IC50 on L1196M mutant ALK kinase came to 25 nM; with NCI-H2228 cell line, 440 nM.

For the compound `Cc1cc(Nc2ncc(Cl)c(Nc3cn(C)nc3S(=O)(=O)C(C)C)n2)c(OC2CC2)cc1C1CN(S(C)(=O)=O)C1` [Final product 170], the figures for the IC50 on L1196M mutant ALK kinase and in the experiment with NCI-H2228 cell line were 95 nM and 381 nM, respectively.

Turning to `Cc1cc(Nc2ncc(Cl)c(Nc3cn(C)nc3S(=O)(=O)CC(C)C)n2)c(OC2CC2)cc1C1CN(S(C)(=O)=O)C1` [Final product 171], the values for the IC50 at L1196M mutant ALK kinase and in the experiment on NCI-H2228 cell line were 156 nM and 251 nM, respectively.

In the case of `CC(C)S(=O)(=O)c1nn(C)cc1Nc1nc(Nc2ccc(C3CCN(S(C)(=O)=O)C3)cc2OC2CC2)ncc1Cl` (centres unmarked) [Final product 172], the IC50 at L1196M mutant ALK kinase turned out to be 9 nM; with NCI-H2228 cell line, 111 nM.

In the case of `CC(C)S(=O)(=O)c1nn(C2CC2)cc1Nc1nc(Nc2ccc(C3CCN(S(C)(=O)=O)CC3)cc2OC2CC2)ncc1Cl` [Final product 173], the IC50 was found to be 28 nM at L1196M mutant ALK kinase and 34 nM with NCI-H2228 cell line.

Take `CCNC(=O)N1CCC(c2cc(OC3CC3)c(Nc3ncc(Cl)c(Nc4cn(C)nc4S(=O)(=O)C(C)C)n3)cc2C)CC1` [Final product 174, 4-(4-(5-chloro-4-(3-(isopropylsulfonyl)-1-methyl-1H-pyrazol-4-amine)pyrimidin-2-amine)-5-cyclopropoxy-2-methyl-phenyl)-N-ethyl-piperidin-1-carboxamide]: the IC50 is 6 nM at L1196M mutant ALK kinase and 82 nM in the experiment with NCI-H2228 cell line.

As for `CCN(CC)[C@H]1CC[C@H](c2cc(OC3CC3)c(Nc3ncc(Cl)c(Nc4cn(C)nc4S(=O)(=O)CC(C)C)n3)cc2C)CC1` [Final product 178], the IC50 at L1196M mutant ALK kinase amounted to 17 nM; in the experiment with NCI-H2228 cell line, 101 nM.

`Cc1cc(Nc2ncc(Cl)c(Nc3cn(C)nc3S(=O)(=O)CC(C)C)n2)c(OC2CC2)cc1[C@H]1CC[C@H](NC2CC2)CC1` [Final product 180]: the 50% inhibitory concentration (IC50) at L1196M mutant ALK kinase is 40 nM; in the experiment on NCI-H2228 cell line, 127 nM.

`Cc1cc(Nc2ncc(Cl)c(Nc3cn(C)nc3S(=O)(=O)CC(C)C)n2)c(OC2CC2)cc1[C@H]1CC[C@H](NC(C)C)CC1` [Final product 182]: the IC50 at L1196M mutant ALK kinase turned out to be 22 nM; in the experiment with NCI-H2228 cell line, 89 nM.

Take `Cc1cc(Nc2ncc(Cl)c(Nc3cn(C)nc3S(=O)(=O)C(C)C)n2)c(OC(C)C)cc1[C@H]1CC[C@H](NC(C)C)CC1` [Final product 188]: the IC50 stood at 8 nM at L1196M mutant ALK kinase and 89 nM with NCI-H2228 cell line.

On to `Cc1cc(Nc2ncc(Cl)c(Nc3cn(C)nc3S(=O)(=O)C(C)C)n2)c(OC2CC2)cc1[C@H]1CC[C@@H](N(C)C)CC1` [Final product 189], for which the IC50 at L1196M mutant ALK kinase was 7 nM; in the experiment with NCI-H2228 cell line, 76 nM.

In the case of `Cc1cc(Nc2ncc(Cl)c(Nc3cn(C)nc3S(=O)(=O)C(C)C)n2)c(OC2CC2)cc1[C@H]1CC[C@H](NC2CC2)CC1` [Final product 196], the IC50 was determined as 18 nM on L1196M mutant ALK kinase and 88 nM with NCI-H2228 cell line.

With `Cc1cc(Nc2ncc(Cl)c(Nc3cn(C)nc3S(=O)(=O)C(C)C)n2)c(OC2CC2)cc1[C@H]1CC[C@H](NC(C)C)CC1` [Final product 198], the figures for the IC50 on L1196M mutant ALK kinase and in the experiment with NCI-H2228 cell line were 9 nM and 54 nM, respectively.

For the compound `Cc1cc(Nc2ncc(Cl)c(Nc3cn(C)nc3S(=O)(=O)C(C)C)n2)c(OC2CC2)cc1C1=C(Cl)CN(C)CC1` [Final product 208, 5-chloro-N^2-[4-(5-chloro-1-methyl-1,2,3,6-tetrahydro-pyridin-4-yl)-2-cyclopropoxy-5-methyl-phenyl]-N^4-[1-methyl-3-(isopropylsulfonyl)-1H-pyrazol-4-yl]-pyrimidin-2,4-diamine], the values for the IC50 at L1196M mutant ALK kinase and in the experiment with NCI-H2228 cell line were 36 nM and 152 nM, respectively.
